Test results taken from patent US20240391931A1 (Bristol-Myers Squibb Company, priority 2021, published 2024).
Where a name gives a salt, the structure may show the parent alone. Read-outs that look alike come from different tables or passages of the source.

What was measured:
HER2YVMA = HER2YVMA (Homo sapiens, UniProt P04626, INS775YVMA); assay: Enzymatic assay HER2YVMA (method b); type: biochemical; parameters: purchased Viva biotech, Shanghai, China custom purification; conditions: [HER2YVMA]=5 nM, [ATP]=25 μM, [Peptide 22]=1 μM
Description: A 2× stock solution of HER2 WT (ERBB2 0108-0000-1; ProQinase, Freiburg, Germany) corresponding to method a, was prepared as described below. Alternatively, a 2× stock solution of HER2YVMA (custom purification; Viva biotech, Shanghai, China) corresponding to method b, was prepared as described below. For method c, a 2× stock of EGFR (ERBB1 PR7295B, Thermo Fisher, Carlsbad, CA) was prepared as described below. All 2× solutions were prepared in buffer containing 50 mM HEPES, pH 7.5, 10 mM MnCl2, MgCl2, 0.005% Tween 20, 1 mM TCEP. 25 ul of 2× enzyme solution was added to a Seahorse low volume 384-well polypropylene assay plate (201288-100, Seahorse Bioscience, Chicopee, MA) containing 1 μl of compound serially diluted in 50% DMSO. To initiate the reaction, 25 μl of solution containing 2× final concentration of ATP and ProfilerPro Peptide 22 (760366, Perkin Elmer Hopkinton, MA) was added to each well. The reactions were separated on an LC3000 (Caliper Life Sciences) or a LabChip EZReader (Perkin Elmer) in kinetic mode.
At the conclusion of each assay, the data were exported from the instrument as a .rda file (LC3000) and processed in proprietary software, EZReviewer, which determines the percent of substrate converted to product within a given cycle as (P/P+S)*100 by measuring the amplitude of substrate and product peaks. Cycle time varied with amount of compounds tested between 8 and 12 cycles. Initial velocity (0-3600 s) from each reaction was determined from the slope of a plot of percent conversion at each cycle versus time (seconds). Percent inhibition was determined by dividing the slope of each reaction by the uninhibited control using 100*(1-(x/uninhibited control)). IC50 estimates were obtained by plotting the concentration of inhibitor versus percent inhibition in GraphPad Prism (GraphPad Software, San Diego, CA) using log[inhibitor] versus Response (Variable Slope Model); Y=Min+((Max-Min)/(1+((IC50/x)^Hillslope)))
• a) [HER2 WT]=12.5 nM, [ATP]=25 μM, [Peptide 22]=1 μM (ATP KMapp˜25 μM) • b) [HER2YVMA]=5 nM, [ATP]=25 μM, [Peptide 22]=1 μM (ATP KMapp˜15 μM) • c) [EGFR WT]=2 nM, [ATP]=1 mM, [Peptide 22]=1 μM (ATP KMapp˜25 μM)

EGFR = EGFR (Homo sapiens, UniProt P00533); assay: EGFR signaling (pEGFR Tyr1068/total EGFR MSD) in A431 cells; type: cell-based; parameters: endogenous in cells; host or cells: A431, N87; conditions: for Selectivity A431 EC50/BT474 EC50: ratio A431 pEGFR EC50 to BT474 pHER2 EC50; for Selectivity A431 EC50/HEKYVMA EC50: ratio A431 pEGFR EC50 to HEK YVMA pHER2 EC50
Description: In addition to the engineered cell lines, the following cell lines were used: BT474 (human breast carcinoma), N87 (human gastric carcinoma), NCI-H1781 (human lung adenocarcinoma), and A431 (human epidermoid carcinoma); all cell lines were obtained from the American Type Culture Collection (ATCC, Manassas, VA). NCI-H1781 were grown in complete RPMI 1640 (Life Technologies, Carlsbad, CA) supplemented with 15% fetal bovine serum (FBS, Life Technologies, Carlsbad, CA) and 1% Penicillin-Streptomycin (P/S, Life Technologies, Carlsbad, CA). N87 cells were grown in complete RPMI 1640 supplemented with 10% FBS and 1% P/S. BT474 and A431 cells were grown in DMEM (Life Technologies, Carlsbad, CA) supplemented with 10% FBS and 1% P/S. All cells were maintained and propagated in a humidified 5% CO2 incubator at 37° C.
A431 Cells were plated in 96-well tissue-culture treated plates in full media for 6 h, then starved with media containing 0.1% FBS for overnight. Media was replaced with low serum media (1% FBS) containing compound at 10, 3.3, 1.1, 0.37, 0.12, 0.041, 0.014, 0.005 μM or DMSO control (0.1%). Cells were incubated for 1.5 hr, then stimulated with 100 ng/mL human EGF (PeproTech, Rocky Hill, NJ) for 10 minutes. Cells were washed with cold PBS, and lysed for 30 min on ice in complete MSD lysis buffer (prepared as described in HER2 Signaling Method); lysates were stored at −70° C. until further analysis. EGFR signaling was evaluated using phospho (Tyr 1068)/total EGFR whole cell lysate kit (Meso-Scale Discovery, Gaithersburg, MD). The phospho EGFR signal was normalized to total EGFR for each sample; results are reported as % DMSO control. The normalized data was fitted using a sigmoidal curve analysis program (Graph Pad Prism version 6) with variable Hill slope to determine EC50 values. The results are provided in Table 4, under column titled “A431-pEGFR EC50”.

[1] = A431 cells, read-out: A431 pEGFR EC50

Sequence of EGFR (P00533 25-1210): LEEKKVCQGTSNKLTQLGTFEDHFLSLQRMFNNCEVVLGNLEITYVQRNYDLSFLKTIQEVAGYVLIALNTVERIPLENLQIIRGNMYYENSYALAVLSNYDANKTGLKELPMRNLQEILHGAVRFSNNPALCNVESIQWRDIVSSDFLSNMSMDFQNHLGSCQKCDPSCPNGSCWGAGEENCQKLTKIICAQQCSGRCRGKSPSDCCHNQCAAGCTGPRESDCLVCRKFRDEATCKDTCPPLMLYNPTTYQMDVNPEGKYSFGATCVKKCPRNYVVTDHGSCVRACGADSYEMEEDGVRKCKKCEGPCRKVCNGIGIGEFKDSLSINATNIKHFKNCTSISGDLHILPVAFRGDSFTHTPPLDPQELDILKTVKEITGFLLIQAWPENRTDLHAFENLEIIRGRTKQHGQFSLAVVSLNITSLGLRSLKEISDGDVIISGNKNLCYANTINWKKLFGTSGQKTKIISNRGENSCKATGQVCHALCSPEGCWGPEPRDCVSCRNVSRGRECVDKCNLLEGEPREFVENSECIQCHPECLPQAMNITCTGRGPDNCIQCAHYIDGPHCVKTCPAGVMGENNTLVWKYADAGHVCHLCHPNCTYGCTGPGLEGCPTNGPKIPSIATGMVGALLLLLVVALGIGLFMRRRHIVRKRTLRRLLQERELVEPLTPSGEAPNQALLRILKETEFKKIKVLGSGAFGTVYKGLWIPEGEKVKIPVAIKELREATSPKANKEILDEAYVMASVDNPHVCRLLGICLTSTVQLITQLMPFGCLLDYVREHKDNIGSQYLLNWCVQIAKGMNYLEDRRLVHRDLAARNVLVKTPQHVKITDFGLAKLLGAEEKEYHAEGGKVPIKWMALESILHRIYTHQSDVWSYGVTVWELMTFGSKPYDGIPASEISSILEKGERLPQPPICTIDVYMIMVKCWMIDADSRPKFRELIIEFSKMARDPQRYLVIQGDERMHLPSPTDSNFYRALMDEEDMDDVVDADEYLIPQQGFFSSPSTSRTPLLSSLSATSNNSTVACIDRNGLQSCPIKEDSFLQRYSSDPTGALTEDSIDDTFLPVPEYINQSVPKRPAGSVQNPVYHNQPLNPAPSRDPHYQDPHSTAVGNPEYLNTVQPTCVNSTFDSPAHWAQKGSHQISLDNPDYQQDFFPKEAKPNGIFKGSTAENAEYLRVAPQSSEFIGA
Sequence of HER2YVMA (P04626 with tags, fused parts or gaps INS775YVMA): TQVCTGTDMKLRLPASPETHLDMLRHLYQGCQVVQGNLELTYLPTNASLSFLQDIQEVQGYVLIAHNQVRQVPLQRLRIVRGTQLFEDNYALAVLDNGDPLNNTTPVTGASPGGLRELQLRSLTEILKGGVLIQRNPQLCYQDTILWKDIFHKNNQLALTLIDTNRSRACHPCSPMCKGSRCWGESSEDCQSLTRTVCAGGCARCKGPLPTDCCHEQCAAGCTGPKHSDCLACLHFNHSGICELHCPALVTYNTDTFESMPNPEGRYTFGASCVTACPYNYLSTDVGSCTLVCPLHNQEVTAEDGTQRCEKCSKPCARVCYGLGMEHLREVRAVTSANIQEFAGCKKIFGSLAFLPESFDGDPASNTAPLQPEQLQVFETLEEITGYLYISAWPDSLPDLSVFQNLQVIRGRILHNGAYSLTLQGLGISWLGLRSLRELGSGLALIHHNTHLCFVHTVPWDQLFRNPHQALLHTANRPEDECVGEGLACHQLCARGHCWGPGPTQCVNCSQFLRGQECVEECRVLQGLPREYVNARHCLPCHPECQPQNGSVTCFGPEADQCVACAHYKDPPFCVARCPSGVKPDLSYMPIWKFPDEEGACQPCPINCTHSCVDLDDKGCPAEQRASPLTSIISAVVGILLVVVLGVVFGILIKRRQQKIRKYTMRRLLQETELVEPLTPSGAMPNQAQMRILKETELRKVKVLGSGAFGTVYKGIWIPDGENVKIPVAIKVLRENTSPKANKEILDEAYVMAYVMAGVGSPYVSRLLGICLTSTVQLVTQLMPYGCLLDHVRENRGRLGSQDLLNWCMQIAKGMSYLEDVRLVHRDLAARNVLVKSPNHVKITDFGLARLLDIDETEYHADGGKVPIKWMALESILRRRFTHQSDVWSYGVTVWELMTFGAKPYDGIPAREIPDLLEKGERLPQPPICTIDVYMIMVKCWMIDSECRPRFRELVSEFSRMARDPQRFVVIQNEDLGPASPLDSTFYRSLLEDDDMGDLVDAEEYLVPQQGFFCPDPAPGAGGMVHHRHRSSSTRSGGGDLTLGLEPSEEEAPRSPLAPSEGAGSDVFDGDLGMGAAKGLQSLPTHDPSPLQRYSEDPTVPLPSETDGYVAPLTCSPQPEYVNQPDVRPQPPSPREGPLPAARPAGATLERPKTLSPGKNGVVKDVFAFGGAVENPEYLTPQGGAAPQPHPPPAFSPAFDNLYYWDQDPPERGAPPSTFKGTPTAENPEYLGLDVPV

| SMILES | IC50 (HER2YVMA) [nM] | EC50 (EGFR; [1]) [nM] | Selectivity A431 EC50/BT474 EC50 (EGFR) | Selectivity A431 EC50/HEKYVMA EC50 (EGFR) | EC50 (EGFR; A431 pEGFR EC50, A431 cells) [nM] |
| --- | --- | --- | --- | --- | --- |
| Cc1ccc(Oc2ccc(Nc3ncnc4sc5c(c34)C(C)N(C(=O)C=CCN(C)C)C5)cc2C)cn1 (single isomer, unassigned) [Compound 148] | 1000 to 10000 | > 10000 | B (B: ≥ 20 and < 100) | C (C: ≥ 10 and < 20) |  |
| Cc1ccc(Oc2ccc(Nc3ncnc4sc5c(c34)CCN(C(=O)/C=C/CN3CC4CCC(C4)C3)C5)cc2C)cn1 [Compound 16, (E)-4-(3-azabicyclo[3.2.1]octan-3-yl)-1-(4-((3-methyl-4-((6-methylpyridin-3-yl)oxy)phenyl)amino)-5,8-dihydropyrido[4′,3′:4,5]thieno[2,3-d]pyrimidin-7(6H)-yl)but-2-en-1-one benzenesulfonate salt] | < 100 |  | D (D: ≥ 5 and < 10) | D (D: ≥ 5 and < 10) | 100 to 1000 |
| COc1ccc(Oc2ccc(Nc3ncnc4sc5c(c34)CCN(C(=O)/C=C/CN(C)C)CC5)cc2C)cn1 [Compound 173, (E)-4-(Dimethylamino)-1-(4-((4-((6-methoxypyridin-3-yl)oxy)-3-methylphenyl)amino)-8,9-dihydro-5H-pyrimido[5′,4′:4,5]thieno[2,3-d]azepin-7(6H)-yl)but-2-en-1-one] | 100 to 1000 | 1000 to 10000 | B (B: ≥ 20 and < 100) | C (C: ≥ 10 and < 20) |  |
| Cc1ccc(Oc2ccc(Nc3ncnc4sc5c(c34)C[C@@H](C)N(C(=O)/C=C/CN(C)C)[C@@H]5C)cc2C)cn1 (racemic) [Compound 165, (E)-1-(6,8-trans-dimethyl-4-((3-methyl-4-((6-methylpyridin-3-yl)oxy)phenyl)amino)-5,8-dihydropyrido[4′,3′:4,5]thieno[2,3-d]pyrimidin-7(6H)-yl)-4-(dimethylamino)but-2-en-1-one] | 100 to 1000 | 1000 to 10000 | B (B: ≥ 20 and < 100) | D (D: ≥ 5 and < 10) |  |
| COc1cc(Nc2ncnc3sc4c(c23)CCN(C(=O)/C=C/CN(C)C)C4)ccc1Oc1ccccc1 [Compound 7, (E)-4-(dimethylamino)-1-(4-((3-methoxy-4-phenoxyphenyl)amino)-5,8-dihydropyrido[4′,3′:4,5]thieno[2,3-d]pyrimidin-7(6H)-yl)but-2-en-1-one] | < 100 | < 100 | D (D: ≥ 5 and < 10) | F (F: < 1) |  |
| Cc1ccc(Oc2ccc(Nc3ncnc4sc5c(c34)CCN(C(=O)/C=C/CN3CCOCC3)C5)cc2C)cn1 [Compound 17, (E)-1-(4-((3-Methyl-4-((6-methylpyridin-3-yl)oxy)phenyl)amino)-5,6-dihydropyrido[4′,3′:4,5]thieno[2,3-d]pyrimidin-7(8H)-yl)-4-morpholinobut-2-en-1-one] | < 100 | 100 to 1000 | C (C: ≥ 10 and < 20) | A (A: ≥100) |  |
| COc1ccc(Oc2ccc(Nc3ncnc4sc5c(c34)C(C)CN(C(=O)C=CCN(C)C)C5)cc2C)cn1 (single isomer, unassigned) [Compound 159] | 100 to 1000 | 100 to 1000 | C (C: ≥ 10 and < 20) | E (E: >1 and < 5) |  |

Second part, led by results:

| IC50 (HER2YVMA) [nM] | EC50 (EGFR; [1]) [nM] | Selectivity A431 EC50/BT474 EC50 (EGFR) | Selectivity A431 EC50/HEKYVMA EC50 (EGFR) | SMILES | EC50 (EGFR; A431 pEGFR EC50, A431 cells) [nM] |
| --- | --- | --- | --- | --- | --- |
| < 100 | < 100 | C (C: ≥ 10 and < 20) | E (E: >1 and < 5) | Cc1ccc(Oc2ccc(Nc3ncnc4sc5c(c34)CCN(C(=O)/C=C/CN3CCC[C@@H](CO)C3)C5)cc2C)cn1 [Compound 154] |  |
| < 100 | 100 to 1000 | B (B: ≥ 20 and < 100) | C (C: ≥ 10 and < 20) | Cc1ccc(Oc2ccc(Nc3ncnc4sc5c(c34)C(C)CN(C(=O)/C=C/CN3CCOCC3)C5)cc2C)cn1 (stereo not shown) [Compound 174, (E)-1-(5-Methyl-4-((3-methyl-4-((6-methylpyridin-3-yl)oxy)phenyl)amino)-5,6-dihydropyrido[4′,3′:4,5]thieno[2,3-d]pyrimidin-7(8H)-yl)-4-morpholinobut-2-en-1-one] |  |
| < 100 | < 100 | C (C: ≥ 10 and < 20) | E (E: >1 and < 5) | COc1ccc(Oc2ccc(Nc3ncnc4sc5c(c34)CCN(C(=O)/C=C/CN3CC[C@@H](CO)C3)C5)cc2C)cn1 [Compound 143] |  |
| < 100 | 1000 to 10000 | B (B: ≥ 20 and < 100) | C (C: ≥ 10 and < 20) | Cc1cc(Nc2ncnc3sc4c(c23)CCN(C(=O)/C=C/CN(C)C)CC4)ccc1Oc1ccn2ccnc2c1 [Compound 172, (E)-4-(Dimethylamino)-1-(4-((4-(imidazo[1,2-a]pyridin-7-yloxy)-3-methylphenyl)amino)-8,9-dihydro-5H-pyrimido[5′,4′:4,5]thieno[2,3-d]azepin-7(6H)-yl)but-2-en-1-one] |  |
| < 100 | 100 to 1000 | B (B: ≥ 20 and < 100) | B (B: ≥ 20 and < 100) | Cc1ccc(Oc2ccc(Nc3ncnc4sc5c(c34)CCN(C(=O)/C=C/CN3CCC(O)C(C)(C)C3)C5)cc2C)cn1 (stereo not shown) [Compound 114] |  |
| < 100 | 100 to 1000 | D (D: ≥ 5 and < 10) | D (D: ≥ 5 and < 10) | CCN(CC)C/C=C/C(=O)N1CCc2c(sc3ncnc(Nc4ccc(Oc5ccc(OC)nc5)c(C)c4)c23)C1 [Compound 137] |  |
| < 100 | 100 to 1000 | B (B: ≥ 20 and < 100) | C (C: ≥ 10 and < 20) | Cc1ccc(Oc2ccc(Nc3ncnc4sc5c(c34)CCN(C(=O)/C=C/CN3CCO[C@H](CO)C3)C5)cc2C)cn1 [Compound 136] |  |
| < 100 | < 100 | E (E: >1 and < 5) | E (E: >1 and < 5) | C=CC(=O)N1CCc2c(sc3ncnc(Nc4ccc(Oc5cccnc5)c(C)c4)c23)C1 [Compound 11, 1-(4-((3-methyl-4-(pyridin-3-yloxy)phenyl)amino)-5,8-dihydropyrido[4′,3′:4,5]thieno[2,3-d]pyrimidin-7(6H)-yl)prop-2-en-1-one] |  |
| < 100 | 100 to 1000 | B (B: ≥ 20 and < 100) | E (E: >1 and < 5) | Cc1ccc(Oc2ccc(Nc3ncnc4sc5c(c34)CCN(C(=O)/C=C/CN3CC(F)(CO)C3)C5)cc2C)cn1 [Compound 151] |  |
